Results reported in patent US8359784B2, “Method for controlling subterranean termite activity by forming a barrier” (FMC Corporation, priority 2009, dated 2013).

System: Formosean subterranean termites (Coptotermes formosanus)
Experiment: Subterranean termite activity on treated wooden frame structures (sheds), field test
Format: in vivo
Text: Twelve wooden frame structures (4 ft by 3 ft by 4 ft high, four to receive treatment with a bifenthrin solution, four to receive a commercial borate standard treatment and four to be used as untreated controls) were built on one inch thick concrete pads in an area of high subterranean termite pressure, Formosean subterranean termites (Coptotermes formosanus). The structures were constructed using pressure treated sill plates, untreated southern yellow pine studs and untreated plywood walls. A two inch diameter polyethylene pipe was installed in a hole in the center of each concrete pad to simulate a plumbing drain installation, leaving a small gap between the pad and the pipe. A piece of wood was inserted in the gap to encourage local termite pressure. […] Termite activity surrounding each structure was monitored by installing commercially available in-ground termite monitors (FIRSTLINE® Defender kits available from FMC Corporation) about one foot from each outside face, a total of four monitors per structure. […] Termite activity was measured in each structure by visually inspecting the inside and outside walls and the area around the polyethylene pipe for termite damage and for construction of shelter tubes at for up to 18 months after treatment. […]

Cc1c(COC(=O)[C@@H]2[C@H](/C=C(\Cl)C(F)(F)F)C2(C)C)cccc1-c1ccccc1 (racemic) [Bifenthrin, 2-methylbiphenyl-3-ylmethyl (Z)-(1RS)-cis-3-(2-chloro-3,3,3-trifluoroprop-1-enyl)-2,2-dimethyl cyclopropanecarboxylate]
Termite damage or damage to the wood piece inserted in the simulated plumbing drain hole (up to 18 months after treatment): None of the bifenthrin treated structures had any indication of termite damage or damage to the wood piece
Damage to structures due to termite activity (visual inspection up to 18 months after treatment): very little or no damage due to termite activity
